Measurements from PMC7756341, “Liposomal FRET Assay Identifies Potent Drug‐Like Inhibitors of the Ceramide Transport Protein (CERT)” (Chemistry (Weinheim an Der Bergstrasse, Germany), 2020).
Values joined by “and” are separate entries in the source; they are usually repeats but may differ in a detail not shown here. Equal entries are not always repeated.

What was measured:
HeLa cells [1] = experiment: Sphingolipid content of treated HeLa cells by quantitative mass spectrometry; format: cell-based; details: for Cer16 / Cer18 / Cer20 / Cer22 / Cer24 / Cer24:1 / Cer total / S1P / SM16 / SM18 / SM20 / SM22 / SM24 / SM24:1 / SM total / Sph / ratio total SM/Cer: HeLa, 42h, single replicates; for Cer16 / Cer18 / Cer20 / Cer22 / Cer24 / Cer24:1 / Cer total / S1P / SM16 / SM18 / SM20 / SM22 / SM24 / SM24:1 / SM total / Sph: 500.000 cells per sample
In short: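 HeLa cells were plated in six-well plates at 177000 cells per well in DMEM containing 4mM L-glutamine, 10% FBS and 1% Penicillin-Streptomycin, then exposed to inhibitor. Harvested cells were adjusted to 500.000 per sample, extracted with methanol/chloroform (2:1) containing Cer17 and d31-SM16 internal standards, and quantified for ceramides and sphingomyelins by C8 reversed-phase HPLC coupled to ESI+ triple-quadrupole MS/MS.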

HeLa cells [2] = experiment: Cellular localization of BODIPY-ceramide by confocal microscopy; format: cell-based; details: 10 µM inhibitor, 2 h
Description: 5.1 Cellular Localization of BODIPY-Ceramide
HeLa cells were seeded in 8 well chamber slides (ibidi µ-Slide 8 Well) in RPMI 1640 medium supplemented with 10% (v/v) heat‐inactivated FCS, 1 mM sodium pyruvate and 2 mM L-glutamine at 37 °C and 5% (v/v) CO2 in a humidified incubator. The day after, cells were incubated with inhibitors for 2 h at a concentration of 10 µM or left untreated by replacing the medium with fresh medium supplemented with the respective inhibitors. After 2 h of incubation, BODIPY FL C5-ceramide (Thermo Fisher) was added to a final concentration of 0,25 µM and imaging was immediately done using an LSM 780 laser scanning confocal microscope (Carl Zeiss). No additional wash steps were performed. After 1 h of incubation, DNA was counterstained using Hoechst 33342. For quantification of BODIPY-Ceramide trafficking, cells were transfected with pECFP-GalT the day before inhibitor incubation for the expression of an eCFP fusion of the human galactosyltransferase (GalT; amino acids 1-60), which localizes at the Golgi apparatus. After incubation with the respective inhibitors (see above), cells were imaged at 30 min post addition of BODIPY FL C5-ceramide. Mean BODIPY intensities of regions of interest surrounding eCFP-GalT-positive Golgi stacks were measured (40 cells per biological replicate, 4 biological replicates in total) using ImageJ software (Rasband, W.S., ImageJ, U. S. National Institutes of Health, Bethesda, Maryland, USA, https://imagej.nih.gov/ij/, 1997-2018) and divided by the total BODIPY intensity detected in the field of view. Quantification (Fig 10B) is expressed as normalized intensity ratio (GA/total).
Figure S10. A Uptake of BODIPY FL C5-ceramide to HeLa cells assessed by normalized fluorescence intensity B Distribution of BODIPY FL C5-ceramide by normalized fluorescence […]
(1 picture or pasted object on this page, not shown here)
Figure S11. BODIPY-Ceramide trafficking. Confocal images showing distribution of BODIPY FL C5-ceramide (green) and Golgi apparatus costaining (eCFP-GalT; blue) in HeLa cells pretreated with 10 µM of respective inhibitors or left untreated. Figures show representative images (n = 4 biological replicates with 40 cells per biological replicate); scale bars, 10 µm.

CC1=NN(c2ccc(C)c(C)c2)C(=O)/C1=N\Nc1cccc(-c2cccc(C(=O)O)c2)c1O [17C9, Eltrombopag]
effect on SM/Cer rate (HeLa cells [1]; HeLa cells): dramatically increased
effect on total sphingomyelin (HeLa cells [1]; HeLa cells, 48 hours, serum-reduced medium): no significant changes
Cer16 (HeLa cells [1]; 1 µM): 34,40 pmol/sample and 29,98 pmol/sample and 31,42 pmol/sample
Cer18 (HeLa cells [1]; 1 µM): 3,09 pmol/sample and 3,68 pmol/sample and 2,62 pmol/sample
Cer20 (HeLa cells [1]; 1 µM): 0,85 pmol/sample and 3,45 pmol/sample and 0,80 pmol/sample
Cer22 (HeLa cells [1]; 1 µM): 6,25 pmol/sample and 5,55 pmol/sample and 6,14 pmol/sample
Cer24 (HeLa cells [1]; 1 µM): 18,45 pmol/sample and 16,72 pmol/sample and 19,49 pmol/sample
Cer24:1 (HeLa cells [1]; 1 µM): 39,87 pmol/sample and 35,52 pmol/sample and 38,79 pmol/sample
Cer total (HeLa cells [1]; 1 µM): 102,91 pmol/sample and 96,34 pmol/sample and 97,82 pmol/sample
S1P (HeLa cells [1]; 1 µM): 1,15 pmol/sample and 1,32 pmol/sample and 1,00 pmol/sample
SM16 (HeLa cells [1]; 1 µM): 1737,34 pmol/sample and 1866,45 pmol/sample and 1725,36 pmol/sample
SM18 (HeLa cells [1]; 1 µM): 50,83 pmol/sample and 50,55 pmol/sample and 45,45 pmol/sample
SM20 (HeLa cells [1]; 1 µM): 17,12 pmol/sample and 16,70 pmol/sample and 15,18 pmol/sample
SM22 (HeLa cells [1]; 1 µM): 108,33 pmol/sample and 106,97 pmol/sample and 93,72 pmol/sample
SM24 (HeLa cells [1]; 1 µM): 172,22 pmol/sample and 163,43 pmol/sample and 147,49 pmol/sample
SM24:1 (HeLa cells [1]; 1 µM): 788,48 pmol/sample and 772,38 pmol/sample and 712,32 pmol/sample
SM total (HeLa cells [1]; 1 µM): 2874,32 pmol/sample and 2976,47 pmol/sample and 2739,52 pmol/sample
Sph (HeLa cells [1]; 1 µM): 3,11 pmol/sample and 2,70 pmol/sample and 4,01 pmol/sample
ratio total SM/Cer (HeLa cells [1]; 1 µM): 29,4 and 28,9 and 28,4
Cer16 (HeLa cells [1]; 2.5 µM): 32,36 pmol/sample and 33,19 pmol/sample and 28,45 pmol/sample
Cer18 (HeLa cells [1]; 2.5 µM): 3,43 pmol/sample and 3,27 pmol/sample and 2,51 pmol/sample
Cer20 (HeLa cells [1]; 2.5 µM): 2,29 pmol/sample and 1,23 pmol/sample and 0,90 pmol/sample
Cer22 (HeLa cells [1]; 2.5 µM): 6,89 pmol/sample and 6,59 pmol/sample and 5,14 pmol/sample
Cer24 (HeLa cells [1]; 2.5 µM): 19,23 pmol/sample and 20,44 pmol/sample and 16,88 pmol/sample
Cer24:1 (HeLa cells [1]; 2.5 µM): 39,53 pmol/sample and 38,37 pmol/sample and 33,82 pmol/sample
Cer total (HeLa cells [1]; 2.5 µM): 103,73 pmol/sample and 103,08 pmol/sample and 87,70 pmol/sample
S1P (HeLa cells [1]; 2.5 µM): 1,23 pmol/sample and 1,05 pmol/sample and 1,02 pmol/sample
SM16 (HeLa cells [1]; 2.5 µM): 1702,42 pmol/sample and 1763,99 pmol/sample and 1597,48 pmol/sample
SM18 (HeLa cells [1]; 2.5 µM): 47,65 pmol/sample and 51,14 pmol/sample and 44,81 pmol/sample
SM20 (HeLa cells [1]; 2.5 µM): 15,77 pmol/sample and 16,69 pmol/sample and 14,30 pmol/sample
SM22 (HeLa cells [1]; 2.5 µM): 97,64 pmol/sample and 104,36 pmol/sample and 90,89 pmol/sample
SM24 (HeLa cells [1]; 2.5 µM): 148,54 pmol/sample and 158,37 pmol/sample and 140,98 pmol/sample
SM24:1 (HeLa cells [1]; 2.5 µM): 659,70 pmol/sample and 706,74 pmol/sample and 726,62 pmol/sample
SM total (HeLa cells [1]; 2.5 µM): 2548,15 pmol/sample and 2718,76 pmol/sample and 2821,17 pmol/sample
Sph (HeLa cells [1]; 2.5 µM): 4,57 pmol/sample and 3,32 pmol/sample and 3,82 pmol/sample
ratio total SM/Cer (HeLa cells [1]; 2.5 µM): 29,1 and 26,2 and 27,4
Cer16 (HeLa cells [1]; 5 µM): 29,49 pmol/sample and 35,89 pmol/sample and 33,40 pmol/sample
Cer18 (HeLa cells [1]; 5 µM): 2,38 pmol/sample and 3,05 pmol/sample and 2,58 pmol/sample
Cer20 (HeLa cells [1]; 5 µM): 0,79 pmol/sample and 0,94 pmol/sample and 0,73 pmol/sample
Cer22 (HeLa cells [1]; 5 µM): 4,97 pmol/sample and 6,52 pmol/sample and 6,08 pmol/sample
Cer24 (HeLa cells [1]; 5 µM): 18,36 pmol/sample and 21,85 pmol/sample and 21,93 pmol/sample
Cer24:1 (HeLa cells [1]; 5 µM): 34,90 pmol/sample and 40,79 pmol/sample and 38,77 pmol/sample
Cer total (HeLa cells [1]; 5 µM): 90,90 pmol/sample and 109,04 pmol/sample and 103,49 pmol/sample
S1P (HeLa cells [1]; 5 µM): 0,97 pmol/sample and 0,93 pmol/sample and 0,94 pmol/sample
SM16 (HeLa cells [1]; 5 µM): 1510,97 pmol/sample and 1730,88 pmol/sample and 1785,73 pmol/sample
SM18 (HeLa cells [1]; 5 µM): 45,08 pmol/sample and 52,99 pmol/sample and 49,27 pmol/sample
SM20 (HeLa cells [1]; 5 µM): 14,34 pmol/sample and 17,35 pmol/sample and 16,52 pmol/sample
SM22 (HeLa cells [1]; 5 µM): 86,79 pmol/sample and 107,23 pmol/sample and 102,55 pmol/sample
SM24 (HeLa cells [1]; 5 µM): 143,47 pmol/sample and 171,51 pmol/sample and 164,74 pmol/sample
SM24:1 (HeLa cells [1]; 5 µM): 606,54 pmol/sample and 703,57 pmol/sample and 702,64 pmol/sample
SM total (HeLa cells [1]; 5 µM): 2407,20 pmol/sample and 2783,54 pmol/sample and 2821,45 pmol/sample
Sph (HeLa cells [1]; 5 µM): 3,92 pmol/sample and 3,79 pmol/sample and 3,72 pmol/sample
ratio total SM/Cer (HeLa cells [1]; 5 µM): 26,5 and 25,5 and 27,3
effect on intracellular distribution of BODIPY-Cer (HeLa cells [2]): only minor effects
